Patent publication EP0907364B1, “SUSTAINED RELEASE PHARMACEUTICAL COMPOSITIONS COMPRISING A DIBENZOTHIAZEPINE DERIVATIVE” (AstraZeneca AB, priority 1996, dated 1997)
Values after ≈ are worked out from the molar mass of the structure shown.

Test: physchem
Conditions: 20 °C, water, thermodynamic from solid

solubility thermodynamic: 3290 µg/mL (≈ 8.58 mM)
SMILES: OCCOCCN1CCN(C2=Nc3ccccc3Sc3ccccc32)CC1 [11-[4-[2-(2-hydroxyethoxy)ethyl]-1-piperazinyl]dibenzo[b,f][1,4]-thiazepine]
